Measured values published in US8735384B2, “Amino heteroaryl compounds as beta-secretase modulators and methods of use” (Amgen Inc., priority 2010, dated 2014).
Read-outs that look alike come from different tables or passages of the source.

What was measured:
BACE1 = BACE1 (Homo sapiens, UniProt P56817); experiment: In vitro enzymatic BACE FRET assay; format: biochemical; conditions: beta secretase enzyme 0.2 nM, FRET substrate 50 nM, pH 4.2; read-out: BACE1 FRET assay (IC50 class)
Experimental: In Vitro Enzymatic BACE FRET (Fluorescence Resonance Energy Transfer) Assay (Enzyme Assay Data in Table 1)
The assay buffer used in this screen is 0.05 M acetate, pH 4.2, 10% DMSO final, 100 uM genapol (which is a nonionic detergent, below its Critical Micelle Concentration). The beta secretase enzyme (0.2 nM) is pre-incubated for one hour with inhibitors, typically in about 1 uL of DMSO according to a serial dilution, are added thereto. The assay is effectively started by the addition of FRET substrate (50 nM) and the combination is incubated for one hour. The FRET assay is terminated with by addition of Tris buffer, which raises the pH to neutrality, and the fluorescence is determined. The FRET substrate is a peptide with commercially available fluorophore and quencher, on opposite sides of the BACE cleavage site. Proteolytic cleavage of the FRET substrate releases quenching of fluorescence (excitation […] and […]).
Of the compounds tested, the in-vitro BACE FRET enzyme data for each of Examples 1-220, where available at the time of filing this application, is provided in Table 1.

[1] = test system: Aβ40 in conditioned medium of cells stably expressing Amyloid Precursor Protein (APP); experiment: In vitro BACE cell-based assay (HEK cell assay), Aβ40 sandwich ELISA; conditions: inhibition of Aβ40, 24 h incubation, read-out: HEK cell assay (IC50 class)
Experimental: In Vitro BACE Cell-Based Assay:
The cell-based assay measures inhibition or reduction of Aβ40 in conditioned medium of test compound treated cells expressing amyloid precursor protein.
Cells stably expressing Amyloid Precursor Protein (APP) were plated at a density of 40K cells/well in 96 well plates (Costar). The cells were cultivated for 24 hours at 37° C. and 5% CO2 in DMEM supplemented with 10% FBS. The test compounds were then added to cells in 10-point dose response concentrations with the starting concentration being either 100 μM or 10 μM. The compounds were diluted from stock solutions in DMSO and the final DMSO concentration of the test compounds on cells was 0.1%. After 24 h of incubation with the test compounds the supernatant conditioned media was collected and the Aβ 40 levels were determined using a sandwich ELISA. The IC50 of the compound was calculated from the percent of control or percent inhibition of Aβ 40 as a function of the concentration of the test compound.
The sandwich ELISA to detect Aβ 40 was performed in 96 well microtiter plates, which were pre-treated with goat anti-rabbit IgG (Pierce). The capture and detecting antibody pair that were used to detect Aβ 40 from cell supernatants were affinity purified pAb40 (Biosource) and biotinylated 6E10 (Signet Labs Inc.), respectively. The optimal concentration for the pAb40 antibody was 3 μg/ml in Superblock/TBS (Pierce) that was supplemented with 0.05% Tween 20 (Sigma). Optimal concentration for the detection antibody 6E10-biotinylated was 0.5 μg/ml in Superblock/TBS (Pierce) that had been supplemented with 2% normal goat serum and 2% normal mouse serum.
Cellular supernatants were incubated with the capture antibody for 3 h at 4° C., followed by 3 wash steps in TBS-tween (0.05%). The detecting antibody incubation was for 2 h at 4° C., again followed by the wash steps as described previously. The final readout of the ELISA is Time-Resolved Fluorescence (counts per minute) using Delfia reagents Streptavidin-Europium and Enhancement solutions (Perkin Elmer) and the Victor 2 multilabel counter (Perkin Elmer).

Sequence of BACE1 (P56817 46-501, species assumed): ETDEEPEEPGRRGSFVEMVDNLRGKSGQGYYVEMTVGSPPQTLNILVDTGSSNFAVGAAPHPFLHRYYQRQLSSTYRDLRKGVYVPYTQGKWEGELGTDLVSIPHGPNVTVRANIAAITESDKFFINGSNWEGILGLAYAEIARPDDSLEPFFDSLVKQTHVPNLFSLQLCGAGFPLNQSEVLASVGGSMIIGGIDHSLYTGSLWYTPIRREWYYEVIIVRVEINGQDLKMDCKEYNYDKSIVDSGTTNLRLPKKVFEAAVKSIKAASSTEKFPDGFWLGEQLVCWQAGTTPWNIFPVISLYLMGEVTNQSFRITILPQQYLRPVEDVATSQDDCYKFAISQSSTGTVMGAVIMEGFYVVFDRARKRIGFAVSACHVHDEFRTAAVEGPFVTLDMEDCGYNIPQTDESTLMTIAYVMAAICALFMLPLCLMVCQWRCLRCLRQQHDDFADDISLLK

Row | Molecule | IC50 (BACE1) | IC50 [1] | IC50 ([1]; Homo sapiens, HEK293, 24 h)
1 | 2-(2-amino-3-(2,6-dimethylmorpholino)quinolin-6-yl)-N-ethyl-3-methyl-N-propylbenzamide [Example 216] | < 0.1 µM | 1.01 to 5 µM | –
2 | Cc1cccc(C(=NO)c2ccccc2)c1-c1ccc2nc(N)c(N3CCOCC3)cc2c1 (stereo in doubt) [Example 16, (Z)-(2-(2-amino-3-morpholinoquinolin-6-yl)-3-methylphenyl)(phenyl)methanone oxime] | < 0.1 µM | 0.501 to 1 µM | –
3 | Cc1cccc(C(=O)N2CCCC2)c1-c1ccc2nc(N)c(N3CCOCC3)cc2c1 [Example 1, (2-(2-amino-3-morpholinoquinolin-6-yl)-3-methylphenyl)(pyrrolidin-1-yl)methanone] | < 0.1 µM | – | 0.1 to 0.5 µM
4 | Cc1cccc(C(=O)c2ccccc2)c1-c1ccc2nc(N)c(N3CCOCC3)cc2c1 [Example 2, (2-(2-amino-3-morpholinoquinolin-6-yl)-3-methylphenyl)(phenyl)methanone] | < 0.1 µM | – | 1.01 to 5 µM
5 | Cc1ccccc1C(=O)c1cccc(C)c1-c1ccc2nc(N)c(N3CCOCC3)cc2c1 [Example 3, (2-(2-amino-3-morpholinoquinolin-6-yl)-3-methylphenyl)(o-tolyl)methanone] | < 0.1 µM | – | 0.501 to 1 µM
6 | Cc1cccc(C2=NCCc3ccccc32)c1-c1ccc2nc(N)c(N3CCOCC3)cc2c1 [Example 4, 6-(2-(3,4-dihydroisoquinolin-1-yl)-6-methylphenyl)-3-morpholinoquinolin-2-amine] | 0.1 to 0.5 µM | – | 0.501 to 1 µM
7 | Cc1cccc(C(=O)C2CCCO2)c1-c1ccc2nc(N)c(N3CCOCC3)cc2c1 (stereo not shown) [Example 5, (2-(2-amino-3-morpholinoquinolin-6-yl)-3-methylphenyl)(tetrahydrofuran-2-yl)methanone] | 0.1 to 0.5 µM | – | 0.501 to 1 µM
8 | COc1ccccc1C(=N)c1cccc(C)c1-c1ccc2nc(N)c(N3CCOCC3)cc2c1 [Example 6, 6-(2-(imino(2-methoxyphenyl)methyl)-6-methylphenyl)-3-morpholinoquinolin-2-amine] | < 0.1 µM | – | < 0.1 µM
9 | COc1ccccc1C(=O)c1cccc(C)c1-c1ccc2nc(N)c(N3CCOCC3)cc2c1 [Example 7, (2-(2-amino-3-morpholinoquinolin-6-yl)-3-methylphenyl)(2-methoxyphenyl)methanone] | < 0.1 µM | – | 0.1 to 0.5 µM
10 | Cc1cccc(C(c2ccccc2)n2ccnc2)c1-c1ccc2nc(N)c(N3CCOCC3)cc2c1 (stereo not shown) [Example 8, 6-(2-((1H-imidazol-1-yl)(phenyl)methyl)-6-methylphenyl)-3-morpholinoquinolin-2-amine] | 1.01 to 5 µM | – | 1.01 to 5 µM
11 | Cc1cccc(C(c2ccccc2)N2CCCC2)c1-c1ccc2nc(N)c(N3CCOCC3)cc2c1 (stereo not shown) [Example 9, 6-(2-methyl-6-(phenyl(pyrrolidin-1-yl)methyl)phenyl)-3-morpholinoquinolin-2-amine] | 0.501 to 1 µM | – | 0.1 to 0.5 µM
12 | Cc1cccc(C2NCCc3ccccc32)c1-c1ccc2nc(N)c(N3CCOCC3)cc2c1 (stereo not shown) [Example 10, 6-(2-methyl-6-(1,2,3,4-tetrahydroisoquinolin-1-yl)phenyl)-3-morpholinoquinolin-2-amine] | 1.01 to 5 µM | – | 0.1 to 0.5 µM
13 | Nc1nc2ccc(-c3ccccc3C(=O)C3CCOCC3)cc2cc1N1CCOCC1 [Example 11, (2-(2-amino-3-morpholinoquinolin-6-yl)phenyl)(tetrahydro-2H-pyran-4-yl)methanone] | 0.1 to 0.5 µM | – | 1.01 to 5 µM
14 | Nc1nc2ccc(-c3ccccc3C(O)C3CCOCC3)cc2cc1N1CCOCC1 (stereo not shown) [Example 12, (2-(2-amino-3-morpholinoquinolin-6-yl)phenyl)(tetrahydro-2H-pyran-4-yl)methanol] | 1.01 to 5 µM | – | > 5 µM
15 | Nc1nc2ccc(-c3ccccc3CC3CCOCC3)cc2cc1N1CCOCC1 [Example 13, 3-morpholino-6-(2-((tetrahydro-2H-pyran-4-yl)methyl)phenyl)quinolin-2-amine] | 0.1 to 0.5 µM | – | 1.01 to 5 µM
16 | CCCC(=N)c1cccc(C)c1-c1ccc2nc(N)c(N3CCOCC3)cc2c1 [Example 14, 6-(2-(1-iminobutyl)-6-methylphenyl)-3-morpholinoquinolin-2-amine] | 0.1 to 0.5 µM | – | > 5 µM
17 | CO/N=C(\c1ccccc1)c1cccc(C)c1-c1ccc2nc(N)c(N3CCOCC3)cc2c1 [Example 15, (E)-(2-(2-amino-3-morpholinoquinolin-6-yl)-3-methylphenyl)(phenyl)methanone O-methyl oxime] | < 0.1 µM | – | 0.501 to 1 µM
18 | Cc1cccc(C(N)c2ccccc2)c1-c1ccc2nc(N)c(N3CCOCC3)cc2c1 (stereo not shown) [Example 17, 6-(2-(amino(phenyl)methyl)-6-methylphenyl)-3-morpholinoquinolin-2-amine] | < 0.1 µM | – | < 0.1 µM
19 | Cc1cccc(Cc2ccccc2)c1-c1ccc2nc(N)c(N3CCOCC3)cc2c1 [Example 18, 6-(2-benzyl-6-methylphenyl)-3-morpholinoquinolin-2-amine] | < 0.1 µM | – | 1.01 to 5 µM
20 | Cc1cccc(C(=O)OC2CCCC2)c1-c1ccc2nc(N)c(N3CCOCC3)cc2c1 [Example 19, cyclopentyl 2-(2-amino-3-morpholinoquinolin-6-yl)-3-methylbenzoate] | < 0.1 µM | – | 0.1 to 0.5 µM
21 | Cc1cccc(C(=O)N2CCCC2)c1-c1ccc2nc(N)c(N3CCOC[C@H]3C)cc2c1 [Example 20, (R)-(2-(2-amino-3-(3-methylmorpholino)quinolin-6-yl)-3-methylphenyl)(pyrrolidin-1-yl)methanone] | < 0.1 µM | – | 0.501 to 1 µM
22 | CCC1CN(c2cc3cc(-c4c(C)cccc4C(=O)N4CCCC4)ccc3nc2N)CCO1 (stereo not shown) [Example 21, (2-(2-amino-3-(2-ethylmorpholino)quinolin-6-yl)-3-methylphenyl)(pyrrolidin-1-yl)methanone] | < 0.1 µM | – | 1.01 to 5 µM
23 | Cc1cccc(-c2nnc3ccccn23)c1-c1ccc2nc(N)c(N3CCOCC3)cc2c1 [Example 22, 6-(2-([1,2,4]triazolo[4,3-a]pyridin-3-yl)-6-methylphenyl)-3-morpholinoquinolin-2-amine] | 0.1 to 0.5 µM | – | 0.501 to 1 µM
24 | Cc1cccc(C(=O)c2ccncn2)c1-c1ccc2nc(N)c(N3CCOCC3)cc2c1 [Example 23, (2-(2-amino-3-morpholinoquinolin-6-yl)-3-methylphenyl)(pyrimidin-4-yl)methanone] | 0.1 to 0.5 µM | – | > 5 µM
25 | Cc1cccc(-c2cccc(C(F)(F)F)c2)c1-c1ccc2nc(N)c(N3CCOCC3)cc2c1 [Example 25, 6-(3-methyl-3′-(trifluoromethyl)biphenyl-2-yl)-3-morpholinoquinolin-2-amine] | < 0.1 µM | – | > 5 µM
26 | Cc1cccc(C(=O)n2ccc3ccccc32)c1-c1ccc2nc(N)c(N3CCOCC3)cc2c1 [Example 26, (2-(2-amino-3-morpholinoquinolin-6-yl)-3-methylphenyl)(1H-indol-1-yl)methanone] | 0.1 to 0.5 µM | – | > 5 µM
27 | Cc1cc(F)cc(C(=O)N2CCCC2)c1-c1ccc2nc(N)c(N3CCOCC3)cc2c1 [Example 27, (2-(2-amino-3-morpholinoquinolin-6-yl)-5-fluoro-3-methylphenyl)(pyrrolidin-1-yl)methanone] | < 0.1 µM | – | 0.1 to 0.5 µM
28 | Cc1cccc(C(=O)N2CCCC2)c1-c1ccc2nc(N)c(C3CCOCC3)cc2c1 [Example 28, (2-(2-amino-3-(tetrahydro-2H-pyran-4-yl)quinolin-6-yl)-3-methylphenyl)(pyrrolidin-1-yl)methanone] | < 0.1 µM | – | < 0.1 µM
29 | Cc1cccc(C(=O)N2CCCC2)c1-c1ccc2nc(N)c(C3CCCCO3)cc2c1 (stereo not shown) [Example 29, (2-(2-amino-3-(tetrahydro-2H-pyran-2-yl)quinolin-6-yl)-3-methylphenyl)(pyrrolidin-1-yl)methanone] | 0.1 to 0.5 µM | – | 1.01 to 5 µM
